The results in this text go back to patent US20230339937A1, “CONDENSED RING COMPOUNDS THAT INHIBIT H-PGDS” (SATO PHARMACEUTICAL CO., LTD., priority 2020, published 2023).

This assay concerns the target T1, Recombinant human H-PGDS (Homo sapiens, UniProt O60760).
T1 construct: made in house; host or cells: E. coli
The assay is described as follows: H-PGDS inhibitory activity (prostaglandin D2 production from prostaglandin H2, measured by LC-MS/MS). In kind it is biochemical. The conditions noted are these: recombinant human H-PGDS 1.0 nM expressed in E. coli; prostaglandin H2 25 μM; preincubated 15 minutes on ice, reacted on ice for 1 minute; concentration that inhibits prostaglandin D2 production by 50%. In a few lines:
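PGD2 formed from 25 µM prostaglandin H2 during a 1-min on-ice reaction was measured by LC-MS/MS after an FeCl2/citric acid stop. The enzyme was 1.0 nM E. coli-expressed human H-PGDS in Tris-HCl pH 8.0 buffer with MgCl2, reduced glutathione and γ-globulin, preincubated with compound for 15 min on ice. Production was normalised to DMSO controls minus the no-enzyme background.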

T1 sequence (O60760 whole entry): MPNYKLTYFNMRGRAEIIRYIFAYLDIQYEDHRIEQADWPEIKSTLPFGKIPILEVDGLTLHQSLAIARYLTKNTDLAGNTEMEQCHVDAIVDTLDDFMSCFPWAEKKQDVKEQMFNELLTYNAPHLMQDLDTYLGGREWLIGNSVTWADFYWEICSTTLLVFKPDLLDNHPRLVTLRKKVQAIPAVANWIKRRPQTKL

Turning to `Cc1cc2occc2c(-c2ccc(C(=O)N[C@H]3CCN(c4ncccn4)C3)cc2)n1` [Example 332, (S)-4-(6-methylfuro[3,2-c]pyridin-4-yl)-N-[1-(pyrimidin-2-yl)pyrrolidin-3-yl]benzamide], the concentration for half-maximal inhibition (IC50) was 1.6 nM.

In the case of `CC1(C)CC(O)CC(NC(=O)c2ccc(-c3nccc4occc34)cc2)C1` (centres unmarked) [Example 280, 4-(furo[3,2-c]pyridin-4-yl)-N-(5-hydroxy-3,3-dimethylcyclohexyl)benzamide], the IC50 was 2.2 nM.

On to `COC(=O)[C@H]1CC[C@H](NC(=O)c2ccc(-c3nccc4occc34)cc2)CC1` [Example 261, Methyl trans-4-[4-(furo[3,2-c]pyridin-4-yl)benzamide]cyclohexane-1-carboxylate], for which the half-inhibitory concentration (IC50) is 1.6 nM.

Turning to `O=C(N[C@@H]1CC[C@@H](O)C1)c1ccc(-c2nccc3occc23)cc1` (relative stereo) [Example 268, 4-(furo[3,2-c]pyridin-4-yl)-N-(trans-3-hydroxycyclopenthyl)benzamide], the IC50 turned out to be 6.4 nM.

Regarding `CCOC(=O)c1cnc(N2CCC(NC(=O)c3ccc(-c4nccc5occc45)cc3)CC2)o1` [Example 254, ethyl 2-{4-[4-(furo[3,2-c]pyridin-4-yl)benzamide]piperidin-1-yl]oxazole-5-carboxylate], the IC50 is 4 nM.

For `O=C(NC1CCN(C(=O)C2CC2)CC1)c1ccc(-c2nccc3occc23)c(F)c1` [Example 324, N-[1-(cyclopropanecarbonyl)piperidin-4-yl]-3-fluoro-4-(furo[3,2-c]pyridin-4-yl)benzamide], the half-inhibitory concentration (IC50) came out at 1.3 nM.

With `CC(=O)NCCNC(=O)c1ccc(-c2nccc3[nH]ccc23)cc1` [Example 28, N-(2-acetamidoethyl)-4-(1H-pyrrolo[3,2-c]pyridin-4-yl)benzamide], the half-inhibitory concentration (IC50) stood at 1.4 nM.

Regarding `O=C(N[C@H]1CCN(c2ncccn2)C1)c1ccc(-c2nccc3occc23)cc1` [Example 191, (S)-4-(furo[3,2-c]pyridin-4-yl)-N-[1-(pyrimidin-2-yl)pyrrolidin-3-yl]benzamide], the IC50 was determined as 0.63 nM.

Consider `O=C(NCc1ccccc1Cl)c1ccc(-c2nccc3occc23)cc1` [Example 71, N-(2-chlorobenzyl)-4-(furo[3,2-c]pyridin-4-yl)benzamide], for which the IC50 was determined as 12 nM.

For `Cn1ccc(CNC(=O)c2ccc(-c3nccc4[nH]ccc34)cc2)n1` [Example 53, N-[(1-methyl-1H-pyrazol-3-yl)methyl]-4-(1H-pyrrolo[3,2-c]pyridin-4-yl)benzamide], the half-inhibitory concentration (IC50) turned out to be 1.3 nM.

On to `CC(C)(O)[C@H]1CC[C@H](NC(=O)c2ccc(-c3ncc(C(N)=O)c4occc34)cc2)CC1` [Example 140, 4-(4-([trans-4-(2-hydroxypropan-2-yl)cyclohexyl]carbamoyl)phenyl)furo[3,2-c]pyridine-7-carboxamide], for which the 50% inhibitory concentration (IC50) was determined as 224 nM.

Take `O=C(N[C@H]1C[C@@H](O)C1)c1ccc(-c2nccc3occc23)cc1` [Example 269, 4-(furo[3,2-c]pyridin-4-yl)-N-(cis-3-hydroxycyclobutyl)benzamide]: the IC50 was determined as 5.2 nM.

Take `O=C(NC1CCN(c2cc(Cl)ncn2)CC1)c1ccc(-c2nccc3occc23)cc1` [Example 146, N-[1-(6-chloropyrimidin-4-yl)piperidin-4-yl]-4-(furo[3,2-c]pyridin-4-yl)benzamide]: the IC50 was 1 nM.

Regarding `O=C(NC1CCCCC1)c1ccc(-c2nccc3[nH]ccc23)cc1` [Example 5, N-cyclohexyl-4-(1H-pyrrolo[3,2-c]pyridin-4-yl)benzamide], the concentration for half-maximal inhibition (IC50) worked out at 1.6 nM.

Consider `O=C(NC1C2CC3CC1CC(O)(C3)C2)c1ccc(-c2nccc3occc23)cc1` (stereo not drawn) [Example 272, 4-(furo[3,2-c]pyridin-4-yl)-N-(trans-5-hydroxyadamantan-2-yl)benzamide], for which the IC50 is 2.4 nM.

Consider `Cc1coc2ccnc(-c3ccc(C(=O)N[C@H]4CC[C@H](C(C)(C)O)CC4)cc3)c12` [Example 130, N-[trans-4-(2-hydroxypropan-2-yl)cyclohexyl]-4-(3-methylfuro[3,2-c]pyridin-4-yl)benzamide], for which the half-maximal inhibitory concentration (IC50) worked out at 6.8 nM.

For the compound `N#CC12CCC(NC(=O)c3ccc(-c4nccc5occc45)cc3)(CC1)CC2` [Example 351, N-(4-cyanobicyclo[2.2.2]octan-1-yl)-4-(furo[3,2-c]pyridin-4-yl)benzamide], the IC50 was determined as 1.3 nM.

Take `CCCCn1nnnc1N1CCC(NC(=O)c2ccc(-c3nccc4occc34)cc2)CC1` [Example 241, N-[1-(1-butyl-1H-tetrazol-5-yl)piperidin-4-yl]-4-(furo[3,2-c]pyridin-4-yl)benzamide]: the IC50 was found to be 2.7 nM.

For the compound `O=C(N[C@H]1C[C@H](O)C1)c1ccc(-c2nccc3occc23)cc1` [Example 270, 4-(furo[3,2-c]pyridin-4-yl)-N-(trans-3-hydroxycyclobutyl)benzamide], the IC50 turned out to be 6.4 nM.

For the compound `NS(=O)(=O)c1ccc(CCNC(=O)c2ccc(-c3nccc4[nH]ccc34)cc2)cc1` [Example 47, 4-(1H-pyrrolo[3,2-c]pyridin-4-yl)-N-(4-sulfamoylphenethyl) benzamide], the IC50 was 1.1 nM.

`O=C(N[C@H]1CC[C@H](N2CCCC2=O)CC1)c1ccc(-c2nccc3occc23)cc1` [Example 299, 4-(furo[3,2-c]pyridin-4-yl)-N-[trans-4-(2-oxopyrrolidin-1-yl)cyclohexyl]benzamide]: the IC50 worked out at 4 nM.

In the case of `CC(C)(O)[C@H]1CC[C@H](NC(=O)c2ccc(-c3ncc(F)c4occc34)cc2)CC1` [Example 136, 4-(7-fluorofuro[3,2-c]pyridin-4-yl)-N-[trans-4-(2-hydroxypropan-2-yl)cyclohexyl]benzamide], the half-inhibitory concentration (IC50) worked out at 9 nM.

For the compound `O=C(N[C@@H]1CCC[C@H](O)CC1)c1ccc(-c2nccc3occc23)cc1` (relative stereo) [Example 293, 4-(furo[3,2-c]pyridin-4-yl)-N-(cis-4-hydroxycycloheptyl)benzamide], the IC50 stood at 1.6 nM.

`O=C(Nc1cc(C2CC2)[nH]n1)c1ccc(-c2nccc3occc23)cc1` [Example 104, N-(5-cyclopropyl-1H-pyrazol-3-yl)-4-(furo[3,2-c]pyridin-4-yl)benzamide]: the half-inhibitory concentration (IC50) was 8 nM.

For the compound `O=C(NC1CCNCC1)c1ccc(-c2nccc3occc23)cc1` [Example 142, 4-(furo[3,2-c]pyridin-4-yl)-N-(piperidin-4-yl)benzamide], the IC50 was 3.4 nM.

Consider `O=C(N[C@@H]1CCC[C@H](O)C1)c1ccc(-c2nccc3occc23)cc1` (relative stereo) [Example 265, 4-(furo[3,2-c]pyridin-4-yl)-N-(cis-3-hydroxycyclohexyl)benzamide], for which the IC50 stood at 4.8 nM.

Turning to `Cn1nccc1N1CCC(NC(=O)c2ccc(-c3nccc4occc34)cc2)CC1` [Example 250, 4-(furo[3,2-c]pyridin-4-yl)-N-[1-(1-methyl-1H-pyrazol-5-yl)piperidin-4-yl]benzamide], the IC50 amounted to 3.2 nM.

In the case of `CCCCNC(=O)c1ccc(-c2nccc3[nH]ccc23)cc1` [Example 7, N-butyl-4-(1H-pyrrolo[3,2-c]pyridin-4-yl)benzamide], the half-inhibitory concentration (IC50) amounted to 1.4 nM.

With `O=C(N[C@H]1CCCC[C@H]1O)c1ccc(-c2nccc3occc23)cc1` (relative stereo) [Example 273, 4-(furo[3,2-c]pyridin-4-yl)-N-(cis-2-hydroxycyclohexyl)benzamide], the IC50 was determined as 2.8 nM.
